In PubChem BioAssay AID2060335 (Molecular Pharmacology Branch, DTP, NCI, 2025):
“And” between values parts separate entries of the source, which are not always exact repeats. Equal entries are not always repeated.

Test system: DU-145 multicell spheroids with HUVEC/MSC, viability
Assay: Anticancer human tumor DU-145 cell line growth inhibition [IpAb];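 also: spheroids exposed to agents for seven days before measurement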;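 as to viability, T/C: percent of DMSO vehicle control viability so 100% = untreated level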
Details: for viability, T/C: stronger effect = lower value
Source text: Combinatorial screen of targeted agents with ipatasertib and abemaciclib in multi-cell type tumor spheroids
A high-throughput screen of multi-cell type tumor spheroids was designed to identify active combinations of targeted small molecules and ipatasertib or abemaciclib. Complex spheroids include a stromal component modeled by human endothelial cells (HUVEC) and fibroblasts modeled by human mesenchymal stem cells (MSCs). The concentration ranges selected for each drug and investigational agent were based upon clinically achievable concentrations if the clinical Cmax of the agent was known.
Compounds. The drugs and investigational agents: ipatasertib (NSC767898), abemaciclib(NSC768073), selumetinib (NSC741078), trametinib (758246), adavosertib (NSC754352), everolimus (NSC733504), sapanisertib (NSC764658), vemurafenib (NSC761431), venetoclax (NSC766270), copanlisib (NSC809693), apelisib (NSC765974), palbociblib (NSC758247), vemurafenib (NSC761431), dabrafenib (NSC764134), ravoxertinib (NSC781343), BMS-387032 (NSC767048), sotorasib (NSC818433), talazoparib (NSC767125) and afursertib (NSC778305), were obtained from the National Cancer Institute (NCI) Developmental Therapeutics Program Chemical Repository. The FDA-approved anticancer drug set is available from the NCI Developmental Therapeutics Program. […] The stock solutions were prepared in dimethyl sulfoxide (DMSO, Sigma-Aldrich, St. Louis, MO, cat. D2650) at 800-fold the tested concentration and stored at -70 degrees C prior to their use. All drugs and investigational agents were tested over a range starting from a high concentration at or near the clinical Cmax and decreasing in half-log increments. If the clinical Cmax for an agent had not been determined, the highest concentration tested was 10 microM.
NCI60 Cell Culture. NCI60 cell lines were obtained from the NCI Developmental Therapeutics Program Tumor Repository. For each lot of cells, the Repository performed Applied Biosystems AmpFLSTR Identifiler testing with PCR amplification to confirm consistency with the published Identifier STR profile for each cell line. Cells were kept in continuous culture for no more than 20 passages. The optimal seeding densities for each of the cell lines at each time point assessed were determined prior to performing the concentration response studies. Briefly, the NCI60 human tumor lines were grown as monolayers in RPMI 1640 medium supplemented with 10% FBS and 2 mmol/L L-glutamine.
An additional 9 lines were from the NCI60 cell line panel including MDA-MB-231 breast carcinoma, MDA-MB-468 breast carcinoma, MCF7 breast carcinoma, Hs578T breast carcinoma, MALME-3M melanoma, SK-MEL-2 melanoma, SK-OV-3 ovarian carcinoma, DU-145 prostate carcinoma, PC-3 prostate carcinoma, all cell lines along with major genetic alterations are listed on Table 2. Pooled donor human umbilical vein endothelial cells (HUVEC, Lonza, cat. CC-2519) and human mesenchymal stem cells (hMSC, Lonza, cat. PT-2501) were purchased from Lonza (Walkersville, MD).
PDMR cell lines were grown in complete medium (DC medium): Dulbecco's modified Eagle's medium (DMEM)/F12 supplemented with 5% fetal bovine serum (FBS), 2 mM L-glutamine, 100 U/mL penicillin and 100 µg/ml streptomycin, 0.4 µg/ml hydrocortisone, 10 ng/ml epidermal growth factor (EGF) recombinant human protein, 24 µg/mL adenine, and 0.1 mg/mL primocin. During culture from frozen stock vials, PDMR cells were cultured in the same medium containing 10 µM Y-27632 (see Table 3). The PDCs were cultured in complete DMEM/F12 media without 10 microM Y-27632 dihydrochloride for at least two passages prior to the screen. The pooled donor HUVEC and hMSC were cultured in endothelial cell growth medium 2 (PromoCell, Heidelberg, Germany, cat. C-22011) and mesenchymal stem cell growth medium 2 (PromoCell, cat. C-28009), respectively. For all experiments, HUVEC and hMSC were used at passages </=5.
[…]

[1] = compound alone, run of 06/01/2021

C=CC(=O)N1CCN(c2nc(=O)n(-c3c(C)ccnc3C(C)C)c3nc(-c4c(O)cccc4F)c(F)cc23)C(C)C1 (stereo not drawn)
viability, T/C (compound 0.0316 µM): 104% and 107% | viability, T/C (compound 0.1 µM): 109% and 108% | viability, T/C (compound 0.316 µM): 107% and 109% | viability, T/C (compound 1 µM): 112% and 113% | viability, T/C (compound 3.16 µM): 90.7% and 103% | viability, T/C (compound 10 µM): 44.1% and 48.9% | IC50 (curve of compound): 8660 nM and 9820 nM

C=CCn1c(=O)c2cnc(Nc3ccc(N4CCN(C)CC4)cc3)nc2n1-c1cccc(C(C)(C)O)n1
viability, T/C (compound 0.0316 µM): 92.5% and 92.3% | viability, T/C (compound 0.1 µM): 59.8% and 56.2% | viability, T/C (compound 0.316 µM): 23.2% and 29.1% | viability, T/C (compound 1 µM): 18.4% and 24.8% | viability, T/C (compound 3.16 µM): 11.1% and 15.6% | viability, T/C (compound 10 µM): 9.63% and 14.2% | IC50 (curve of compound): 136 nM and 129 nM

CC(=O)c1c(C)c2cnc(Nc3ccc(N4CCNCC4)cn3)nc2n(C2CCCC2)c1=O
viability, T/C (compound 0.000949 µM): 104% and 89.4% | viability, T/C (compound 0.003 µM): 102% and 98.4% | viability, T/C (compound 0.00949 µM): 99.7% and 96.5% | viability, T/C (compound 0.03 µM): 103% and 93.6% | viability, T/C (compound 0.0949 µM): 99.4% and 97.1% | viability, T/C (compound 0.3 µM): 90.7% and 80.9% | IC50 (curve of compound): > 300 nM

CC(C)(C)c1cnc(CSc2cnc(NC(=O)C3CCNCC3)s2)o1
viability, T/C (compound 0.00949 µM): 110% and 106% | viability, T/C (compound 0.03 µM): 105% and 110% | viability, T/C (compound 0.0949 µM): 71.5% and 59.3% | viability, T/C (compound 0.3 µM): 12.9% and 9.3% | viability, T/C (compound 0.949 µM): 7.58% and 6.45% | viability, T/C (compound 3 µM): 5.4% and 5.44% | IC50 (curve of compound): 145 nM and 117 nM

CC(C)NCC(C(=O)N1CCN(c2ncnc3c2C(C)CC3O)CC1)c1ccc(Cl)cc1 (stereo not drawn)
viability, T/C (compound 0.1 µM): 81.1% [middle of 13 runs] | viability, T/C (compound 0.316 µM): 53.8% [middle of 13 runs] | viability, T/C (compound 1 µM): 30.9% [middle of 13 runs] | viability, T/C (compound 3.16 µM): 21.7% [middle of 13 runs] | viability, T/C (compound 10 µM): 17.5% [middle of 13 runs] | IC50 [1]: 381 nM [middle of 13 runs]

CC(C)n1nc(-c2ccc3oc(N)nc3c2)c2c(N)ncnc21
viability, T/C (compound 0.000316 µM): 78.7% and 94.3% | viability, T/C (compound 0.001 µM): 57.3% and 66.2% | viability, T/C (compound 0.00316 µM): 41.3% and 40.2% | viability, T/C (compound 0.01 µM): 22.9% and 21.7% | viability, T/C (compound 0.0316 µM): 14.4% and 12% | viability, T/C (compound 0.1 µM): 10.8% and 10.1% | IC50 (curve of compound): 1.66 nM and 2.03 nM

CC1(C)CCC(CN2CCN(c3ccc(C(=O)NS(=O)(=O)c4ccc(NCC5CCOCC5)c([N+](=O)[O-])c4)c(Oc4cnc5[nH]ccc5c4)c3)CC2)=C(c2ccc(Cl)cc2)C1
viability, T/C (compound 0.0316 µM): 104% | viability, T/C (compound 0.1 µM): 103% and 109% | viability, T/C (compound 0.316 µM): 104% and 107% | viability, T/C (compound 1 µM): 96.4% and 99.4% | viability, T/C (compound 3.16 µM): 69.2% and 76% | viability, T/C (compound 10 µM): 10.1% and 10.8% | IC50 (curve of compound): 4530 nM and 4990 nM

CCCS(=O)(=O)Nc1ccc(F)c(C(=O)c2c[nH]c3ncc(-c4ccc(Cl)cc4)cc23)c1F
viability, T/C (compound 0.0316 µM): 112% and 110% | viability, T/C (compound 0.1 µM): 108% and 114% | viability, T/C (compound 0.316 µM): 110% and 116% | viability, T/C (compound 1 µM): 115% and 118% | viability, T/C (compound 3.16 µM): 109% and 113% | viability, T/C (compound 10 µM): 79.7% and 82.9% | IC50 (curve of compound): > 10000 nM

CCN1CCN(Cc2ccc(Nc3ncc(F)c(-c4cc(F)c5nc(C)n(C(C)C)c5c4)n3)nc2)CC1
viability, T/C (compound 0.01 µM): 97% [middle of 13 runs] | viability, T/C (compound 0.0316 µM): 94% [middle of 13 runs] | viability, T/C (compound 0.1 µM): 84.7% [middle of 13 runs] | viability, T/C (compound 0.316 µM): 74.7% [middle of 13 runs] | viability, T/C (compound 1 µM): 65.3% [middle of 13 runs] | IC50 [1]: > 1000 nM

COc1c(OCCCN2CCOCC2)ccc2c3n(c(=NC(=O)c4cnc(N)nc4)nc12)CCN3
viability, T/C (compound 0.00316 µM): 78.7% and 83.3% | viability, T/C (compound 0.01 µM): 49.7% and 48.7% | viability, T/C (compound 0.0316 µM): 27.3% and 28.9% | viability, T/C (compound 0.1 µM): 15.9% and 14.9% | viability, T/C (compound 0.316 µM): 10.9% and 10.1% | viability, T/C (compound 1 µM): 11% and 11.2% | IC50 (curve of compound): 9.92 nM and 9.81 nM
